Measured values from patent US20240350447A1, “DELIVERY METHODS FOR TREATING BRAIN AND CENTRAL NERVOUS SYSTEM DISEASES” (JENIVISION INC., priority 2021, published 2024).

Columns and labels:
[1] = Baseline endogenous levels of DHA, DHA-EE and JV-DE1; assay type: in vivo; details: undosed Bama minipigs
Protocol: Endogenous levels were measured in the plasma, cerebrospinal fluid, ocular tissues (retina, optic nerve, ocular muscles), and brain. The endogenous levels DHA are not attributable to NIODP administration of DHA, DHA-EE, or JV-DE1. The baseline data collected in Table 4 was taken from the same lot of pigs, from the same vendor, as the information collected in Tables 5-7.

[2] = JV-DE1 in cornea and retina after single eye drop administration; assay type: in vivo, New Zealand Rabbits; details: 120 μg/eye eye drops to the right eye
From the text: NIODP may be more efficient than topical eye drops for corneal delivery to treat corneal disorders, such as dry disease. […] Accordingly, NIODP may be used to deliver other compounds (such as DHA) to the cornea to treat corneal diseases, such as dry eye.

[3] = JV-DE1 distribution after single periorbital skin administration; assay type: in vivo, Bama minipigs
Protocol: In this example, 158.45 μg of 4,5-dihydro-N-[4-[[4-(1-methylethoxy) phenyl]methyl] phenyl]-1H-imadazol-2-amine (JV-DE1) was applied to the periorbital skin of a right eye of a Bama minipig. […] 1.37 ng/g of tissue and 1.35 ng/g of tissue of JV-DE1 was measured in the left and right halves of the brain, respectively. The average amount of JV-DE1 present in the brain 3 hours post-dosage was 1.36 ng/g.
Given that the average Bama pig brain weighs around 60 g, the amount of JV-DE1 delivered to the brain can be estimated to be […]. Therefore, 0.051% of the 158.45 μg of JV-DE1 administered to the periorbital skin was delivered to the brain, […] than the deliverability of DHA via NIODP. As a comparison, only about 0.025% of DHA that is orally administered is delivered to the brain or CNS.

[4] = Biodistribution of JV-DE1 after periorbital skin (NIODP) application to one eye; assay type: in vivo, Cynomolgus monkeys; details: 165.4 μg to OD via NIODP; for OS/OD retina ratio of JV-DE1: undosed/dosed retina
Protocol: An experiment was performed to determine the biodisposition of 4,5-dihydro-N-[4-[[4-(1-methylethoxy) phenyl]methyl] phenyl]-1H-imadazol-2-amine (JV-DE1) following topical application to the periorbital skin that surrounds the anterior portion of the globe was performed.
165.4 μg of JV-DE1, a synthesized chemical compound, was applied to the right eye (OD) of Cynomolgus monkeys via NIODP. The monkeys were restrained from rubbing their eyes for 2 hours post dose and closely monitored by experimenter(s) to prevent cross-contamination of the untreated eye, yet JV-DE1 was quickly found in the undosed upper eyelid (733.4 ng/g), retina (5.2 ng/g) and Vitreous humor (1.03 ng/mL) as early as 0.5-hour post dose. Throughout the 3, 6, and 24-hour post dose points, low levels of JV-DE1 was detected in the retina at 5.5 ˜ 45.5 ng/g of the dosed eye, and 1.4 ˜ 6.3 ng/g of the undosed eye. The ratio of JV-DE1 in undoseD retina vs. the dosed retina was below 25.5% at all post dose time points tested.

[5] = 3 h, JV-DE1 158.45 μg to periorbital skin of right eye

Baseline endogenous concentration in brain [1]: BLQ
Baseline endogenous concentration in cerebrospinal fluid [1]: BLQ
Baseline endogenous concentration in eye tissue homogenate including (Retina, optic nerve, ocular muscle) [1]: BLQ
Baseline endogenous concentration in plasma [1]: BLQ
JV-DE1 in cornea ([2]; OD (dosed eye), 0.5 h): 12124.85 ng/g
JV-DE1 in retina ([2]; OD (dosed eye), 0.5 h): 92.03 ng/g
JV-DE1 in cornea ([2]; OD (dosed eye), 2 h): 5952.6 ng/g
JV-DE1 in retina ([2]; OD (dosed eye), 2 h): 49.13 ng/g
JV-DE1 in cornea ([2]; OD (dosed eye), 6 h): 5125.52 ng/g
JV-DE1 in retina ([2]; OD (dosed eye), 6 h): 58.87 ng/g
JV-DE1 in cornea ([2]; OD (dosed eye), 24 h): 542.19 ng/g
JV-DE1 in retina ([2]; OD (dosed eye), 24 h): 6.82 ng/g
JV-DE1 in cornea ([2]; OS (undosed eye), 0.5 h): 78.35 ng/g
JV-DE1 in retina ([2]; OS (undosed eye), 0.5 h): 7.35 ng/g
JV-DE1 in cornea ([2]; OS (undosed eye), 2 h): 28.92 ng/g
JV-DE1 in retina ([2]; OS (undosed eye), 2 h): 3.38 ng/g
JV-DE1 in cornea ([2]; OS (undosed eye), 6 h): 67.82 ng/g
JV-DE1 in retina ([2]; OS (undosed eye), 6 h): 1.42 ng/g
JV-DE1 in cornea ([2]; OS (undosed eye), 24 h): 11.03 ng/g
JV-DE1 in retina ([2]; OS (undosed eye), 24 h): BLQ
Drug Concentration in Plasma ([3]; 0 h, JV-DE1 158.45 μg to periorbital skin of right eye): BLQ
Drug Concentration in Plasma ([3]; 1 h, JV-DE1 158.45 μg to periorbital skin of right eye): BLQ
Percentage of administered dose delivered to the brain ([3]; 3 h, JV-DE1 158.45 μg periorbital, whole brain estimate): 0.051%
% of administered dose: Cerebrospinal fluid [3, 5]: 0%
% of administered dose: brain-left [3, 5]: 0.0518%
% of administered dose: brain-right [3, 5]: 0.0513%
% of administered dose: inferior rectus muscle-left [3, 5]: 0.0061%
% of administered dose: inferior rectus muscle-right [3, 5]: 0.0170%
% of administered dose: lateral rectus muscle-left [3, 5]: 0.0063%
% of administered dose: lateral rectus muscle-right [3, 5]: 0.0175%
% of administered dose: medial rectus muscle-left [3, 5]: 0.0071%
% of administered dose: medial rectus muscle-right [3, 5]: 0.0260%
% of administered dose: optic nerve-left [3, 5]: 0.0006%
% of administered dose: optic nerve-right [3, 5]: 0.0047%
% of administered dose: retina-left [3, 5]: 0.0002%
% of administered dose: retina-right [3, 5]: 0.0003%
% of administered dose: superior rectus muscle-left [3, 5]: 0.0140%
% of administered dose: superior rectus muscle-right [3, 5]: 0.0237%
Average JV-DE1 present in the brain [3, 5]: 1.36 ng/g
Drug Concentration in Plasma [3, 5]: BLQ
Drug Concentration in Tissue: Cerebrospinal fluid [3, 5]: BLQ
Drug Concentration in Tissue: brain-left [3, 5]: 1.37 ng/g
Drug Concentration in Tissue: brain-right [3, 5]: 1.35 ng/g
Drug Concentration in Tissue: inferior rectus muscle-left [3, 5]: 57.27 ng/g
Drug Concentration in Tissue: inferior rectus muscle-right [3, 5]: 58.71 ng/g
Drug Concentration in Tissue: lateral rectus muscle-left [3, 5]: 53.65 ng/g
Drug Concentration in Tissue: lateral rectus muscle-right [3, 5]: 43.50 ng/g
Drug Concentration in Tissue: medial rectus muscle-left [3, 5]: 43.67 ng/g
Drug Concentration in Tissue: medial rectus muscle-right [3, 5]: 65.54 ng/g
Drug Concentration in Tissue: optic nerve-left [3, 5]: 11.94 ng/g
Drug Concentration in Tissue: optic nerve-right [3, 5]: 33.63 ng/g
Drug Concentration in Tissue: retina-left [3, 5]: 2.30 ng/g
Drug Concentration in Tissue: retina-right [3, 5]: 2.70 ng/g
Drug Concentration in Tissue: superior rectus muscle-left [3, 5]: 85.83 ng/g
Drug Concentration in Tissue: superior rectus muscle-right [3, 5]: 88.37 ng/g
Amount of JV-DE1 delivered to the brain (estimated) ([3]; 3 h, brain weight around 60 g, JV-DE1 158.45 μg periorbital): 80.6 ng
JV-DE1 in plasma ([4]; 0 h post dose): BLQ
JV-DE1 in plasma ([4]; 0.5 h post dose): 0.131 ng/mL
JV-DE1 in plasma ([4]; 3 h post dose): 0.21 ng/mL
JV-DE1 in plasma ([4]; 6 h post dose): 0.26 ng/mL
JV-DE1 in plasma ([4]; 24 h post dose): BLQ
JV-DE1 in cornea ([4]; OD (dosed eye), 0.5 h): 9299.3 ng/g
JV-DE1 in retina ([4]; OD (dosed eye), 0.5 h): 39.6 ng/g
JV-DE1 in upper eyelid ([4]; OD (dosed eye), 0.5 h): 26535.4 ng/g
JV-DE1 in vitreous humor ([4]; OD (dosed eye), 0.5 h): 15.2 ng/mL
Retina/Upper eyelid ratio of JV-DE1 ([4]; OD (dosed eye), 0.5 h): 0.1%
JV-DE1 in cornea ([4]; OD (dosed eye), 3 h): 16688.7 ng/g
JV-DE1 in retina ([4]; OD (dosed eye), 3 h): 27.9 ng/g
JV-DE1 in upper eyelid ([4]; OD (dosed eye), 3 h): 32454.7 ng/g
JV-DE1 in vitreous humor ([4]; OD (dosed eye), 3 h): 7.79 ng/mL
Retina/Upper eyelid ratio of JV-DE1 ([4]; OD (dosed eye), 3 h): 0.1%
JV-DE1 in cornea ([4]; OD (dosed eye), 6 h): 23929.5 ng/g
JV-DE1 in retina ([4]; OD (dosed eye), 6 h): 45.5 ng/g
JV-DE1 in upper eyelid ([4]; OD (dosed eye), 6 h): 7945.6 ng/g
JV-DE1 in vitreous humor ([4]; OD (dosed eye), 6 h): 3.9 ng/mL
Retina/Upper eyelid ratio of JV-DE1 ([4]; OD (dosed eye), 6 h): 0.6%
JV-DE1 in cornea ([4]; OD (dosed eye), 24 h): 1621.3 ng/g
JV-DE1 in retina ([4]; OD (dosed eye), 24 h): 5.5 ng/g
JV-DE1 in upper eyelid ([4]; OD (dosed eye), 24 h): 11597.8 ng/g
JV-DE1 in vitreous humor ([4]; OD (dosed eye), 24 h): 18.97 ng/mL
Retina/Upper eyelid ratio of JV-DE1 ([4]; OD (dosed eye), 24 h): 0.0%
JV-DE1 in cornea ([4]; OS (undosed eye), 0.5 h): 0 ng/g
JV-DE1 in retina ([4]; OS (undosed eye), 0.5 h): 5.2 ng/g
JV-DE1 in upper eyelid ([4]; OS (undosed eye), 0.5 h): 733.4 ng/g
JV-DE1 in vitreous humor ([4]; OS (undosed eye), 0.5 h): 1.03 ng/mL
Retina/Upper eyelid ratio of JV-DE1 ([4]; OS (undosed eye), 0.5 h): 0.7%
JV-DE1 in cornea ([4]; OS (undosed eye), 3 h): 0 ng/g
JV-DE1 in retina ([4]; OS (undosed eye), 3 h): 6.3 ng/g
JV-DE1 in upper eyelid ([4]; OS (undosed eye), 3 h): 1637 ng/g
JV-DE1 in vitreous humor ([4]; OS (undosed eye), 3 h): 1.85 ng/mL
Retina/Upper eyelid ratio of JV-DE1 ([4]; OS (undosed eye), 3 h): 0.4%
JV-DE1 in cornea ([4]; OS (undosed eye), 6 h): 0 ng/g
JV-DE1 in retina ([4]; OS (undosed eye), 6 h): 4.8 ng/g
JV-DE1 in upper eyelid ([4]; OS (undosed eye), 6 h): 378.2 ng/g
JV-DE1 in vitreous humor ([4]; OS (undosed eye), 6 h): 0.57 ng/mL
Retina/Upper eyelid ratio of JV-DE1 ([4]; OS (undosed eye), 6 h): 1.3%
JV-DE1 in cornea ([4]; OS (undosed eye), 24 h): 0 ng/g
JV-DE1 in retina ([4]; OS (undosed eye), 24 h): 1.4 ng/g
JV-DE1 in upper eyelid ([4]; OS (undosed eye), 24 h): 46.3 ng/g
JV-DE1 in vitreous humor ([4]; OS (undosed eye), 24 h): 0 ng/mL
Retina/Upper eyelid ratio of JV-DE1 ([4]; OS (undosed eye), 24 h): 3.0%
Ratio of JV-DE1 in undosed retina vs. dosed retina ([4]; all post dose time points tested): below 25.5%
OS/OD retina ratio of JV-DE1 ([4]; 0.5 h): 13.1%
OS/OD retina ratio of JV-DE1 ([4]; 3 h): 22.6%
OS/OD retina ratio of JV-DE1 ([4]; 6 h): 10.5%
OS/OD retina ratio of JV-DE1 ([4]; 24 h): 25.5%
Structure (SMILES): CC(C)Oc1ccc(Cc2ccc(NC3=NCCN3)cc2)cc1 [JV-DE1, 4,5-dihydro-N-[4-[[4-(1-methylethoxy)phenyl]methyl]phenyl]-1H-imadazol-2-amine]
